Experimental data published in patent US11517571B2, “Use of kinase inhibitors to manage tuberculosis and other infectious diseases” (priority 2015, dated 2022).

How the values were obtained:
Mtb = test: Rhesus macaque latent TB reactivated by SIV; format: in vivo, Rhesus macaques; conditions: then SIV
[1] = test system: Mtb within infected macrophages; test: Mtb in infected macrophages: bacterial load and phagosome-to-lysosome translocation; format: cell-based
mycobacterium [2] = test: In vivo studies with animals infected with mycobacterium
mycobacterium [3] = test: Mice infected with mycobacterium, CFU in the spleen; format: in vivo; conditions: 7 days p.i., FIG. 2
Method: Mice infected with mycobacterium were administered […], rifabutin (2.5 mg/kg/day) alone, and/or a combination of both. CFU in the spleen were determined 7 days (p.i.).

[4] = in vivo
c-Kit = c-Kit (Homo sapiens, UniProt P10721); conditions: in vivo
Chain of c-Kit (P10721 26-976): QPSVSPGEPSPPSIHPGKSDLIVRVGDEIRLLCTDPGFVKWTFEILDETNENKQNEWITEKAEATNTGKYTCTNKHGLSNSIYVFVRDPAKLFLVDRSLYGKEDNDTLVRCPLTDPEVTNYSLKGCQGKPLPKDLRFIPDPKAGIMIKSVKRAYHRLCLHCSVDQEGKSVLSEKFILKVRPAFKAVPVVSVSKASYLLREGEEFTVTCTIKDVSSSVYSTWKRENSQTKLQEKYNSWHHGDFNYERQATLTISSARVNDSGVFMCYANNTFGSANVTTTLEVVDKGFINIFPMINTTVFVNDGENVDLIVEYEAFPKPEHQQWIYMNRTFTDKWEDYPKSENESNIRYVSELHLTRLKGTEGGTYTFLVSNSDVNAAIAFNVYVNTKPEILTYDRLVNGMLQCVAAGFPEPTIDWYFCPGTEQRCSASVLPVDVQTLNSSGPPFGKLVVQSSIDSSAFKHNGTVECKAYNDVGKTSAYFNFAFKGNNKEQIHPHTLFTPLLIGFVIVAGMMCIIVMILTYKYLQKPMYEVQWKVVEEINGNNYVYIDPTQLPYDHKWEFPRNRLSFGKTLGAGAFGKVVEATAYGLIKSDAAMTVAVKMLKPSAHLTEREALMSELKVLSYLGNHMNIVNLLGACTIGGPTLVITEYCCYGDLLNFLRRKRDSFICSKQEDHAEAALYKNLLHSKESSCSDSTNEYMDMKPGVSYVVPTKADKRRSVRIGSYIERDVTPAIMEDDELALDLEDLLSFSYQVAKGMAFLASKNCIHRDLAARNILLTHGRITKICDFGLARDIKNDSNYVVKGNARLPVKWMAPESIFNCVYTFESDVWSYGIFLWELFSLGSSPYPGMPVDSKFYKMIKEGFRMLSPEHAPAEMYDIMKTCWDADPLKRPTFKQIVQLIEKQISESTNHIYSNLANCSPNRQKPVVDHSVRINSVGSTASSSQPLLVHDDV

[5] = Drug concentration in the blood after administration

SMILES: Cc1ccc(NC(=O)c2ccc(CN3CCN(C)CC3)cc2)cc1Nc1nccc(-c2cccnc2)n1 [imatinib, N-(4-methyl-3-((4-(pyridin-3-yl)pyrimidin-2-yl)amino)phenyl)-4-((4-methylpiperazin-1-yl)methyl)benzamide]
- survival (Mtb; latent infection for 6-10 weeks, daily treatment, FIG. 3B): survived
- TB reactivation induced by SIV (Mtb; latent infection): prevents reactivation
- bacterial load in macrophages ([1]; FIG. 1): decreases bacterial load
- translocation of Mtb from the phagosome into the lysosome ([1]; at peak concentration in the micromolar range, depends on Abl): induces translocation of Mtb
- amount of granulomatous lesions within the liver (mycobacterium [2]): reduced the amount of granulomatous lesions
- bacterial load in macrophages (mycobacterium [2]): reduced bacterial load in macrophages
- bacterial load (CFU in the spleen) (mycobacterium [3]; 100 mg/kg/day alone): decrease in bacterial load
- concentration in the blood [4]: ~100 nM
- myelopoiesis (stem cells divide and differentiate along the myeloid lineage) (c-Kit): encourages the stem cells to divide and differentiate along the myeloid lineage
- numbers of innate immune cells in the blood and organs (c-Kit): increase
- peak concentration [5]: micromolar range
- time to peak concentration [5]: ≤ 6 h

SMILES: CO[C@H]1/C=C/O[C@@]2(C)Oc3c(C)c(O)c4c(c3C2=O)C2=NC3(CCN(CC(C)C)CC3)NC2=C(NC(=O)/C(C)=C\C=C\[C@H](C)[C@H](O)[C@@H](C)[C@@H](O)[C@@H](C)[C@H](OC(C)=O)[C@@H]1C)C4=O [Rifabutin]
- bacterial load (CFU in the spleen) (mycobacterium [3]; rifabutin 2.5 mg/kg/day alone): decrease in bacterial load
